Source: patent publication US12286474B2, “Anti-CD38 antibodies for treatment of acute myeloid leukemia” (Janssen Biotech, Inc., priority 2014, dated 2025)

Tests used:
NB-4 AML cell line [1] = assay: CD38 surface expression by FACS with PE-labeled anti-CD38 antibody; format: cell-based; details: 24 hours; for PE-CD38 molecules/cell: NB-4
Experimental: Effect of ATRA on CD38 surface expression was assessed in NB-4 AML cell line. Tumor cells were incubated at 37° C. for 24 hours in the presence or absence of 10 nM or 100 nM ATRA. After 24 hour incubation, the cells were harvested and stained for CD38. ATRA induced ˜10-fold increase in CD38 receptors in the NB-4 cell line. CD38 surface expression was assessed using FACS using PE-labeled anti-CD38 antibody (R&D Systems) (Table 2).

AML cell lines [2] = assay: Apoptosis, summary over AML cell lines; format: cell-based
Experimental: (§1) One ml of target cells (5×10^5 cells/ml) were added to the well of a 24-well plate, together with test antibody (1 μg/ml) in the presence or absence of rabbit anti-huIgG (10 μg/ml; F(ab′)2 Fcγ-specific). Cells were incubated for 22 hours (5% CO2, 37° C.). Thereafter, cells were harvested (1000 rpm, 5 min) and washed twice in PBS (1000 rpm, 5 min). Cells were resuspended in 250 μl binding buffer (Annexin-V Apoptosis kit, BD Biosciences) according to manufacturer's instruction, followed by flow cytometry analysis.
(§2) Apoptosis was measured by both early and late apoptosis (Q2 and Q3 in FIG. 1A and FIG. 1B).

AML cell lines [3] = assay: CDC, summary over AML cell lines; format: cell-based
Experimental: (§3) Target cells were harvested and adjusted to a concentration of 80×10^4 cells/ml. Twelve μl of target cells were added to wells of a 96-well plate, and serial dilution of antibodies added onto the cells. The wells were incubated for 15 minutes, after which human serum high in complement was added at a final concentration of 10%. Reaction mixture was incubated for 21/2 hours at 37° C., and cell lysis was measured using the CellTiter-Glo® assay (Promega).

AML 7577 model = assay: Patient-derived xenograft (PDX) AML 7577 model, leukemic burden; format: in vivo, NSG mice; details: peripheral blood, i.p. 10 mg/kg once a week, 5 weeks
Excerpt: (§4) Patient tumor models AML 3406, AML 7577 and AML 8096 were used in the study.
AML 7577 model: Leukemic cells were collected from a person with AML (FAB subtype M5). Patient had normal karyotype and following mutations: IDH2(R140Q); FLT3-ITD; DNMT3A R882H, NPM1, CEBPA insertion (SNP). Patient has a history of polycythemia versa, and received idarubicin/cytrabine for induction chemotherapy. Patient also received Hudrea® (hydroxyurea).
(§5) 5 million AML MNCs were T-cell depleted and transplanted via tail vein into 6-8 weeks old sub-lethally irradiated NSG mice (n=10 per group). 4 to 6 weeks post-engraftment, bone marrow aspirates were collected from each mouse and were analyzed by flow cytometry to determine the level of leukemia engraftment (% of human CD45^+CD33^+/− cells). Based on engraftment levels, mice were randomized and conditioned with either IgG1 or daratumumab (DARA, pre-dosing at 0.5 mg/kg). 24 hours later, mice were untreated (Ctrl) or treated for 5 consecutive weeks with DARA or IgG1 alone (i.p, 10 mg/kg once a week). 2-3 days after the last treatment, mice were sacrificed and bone marrow, spleen, peripheral blood and plasma were collected for analysis. […]

AML 3406 model = assay: Patient-derived xenograft (PDX) AML 3406 model, leukemic burden; format: in vivo, NSG mice; details: for tumor burden (% leukemic CD45+CD33+ cells): i.p. 10 mg/kg once a week, 5 weeks
Excerpt: as §4
AML3406 model: Patient tumor cells were positive for FLT-3ITD. Patient has a history of polycythemia versa, and received idarubicin/cytrabine for induction chemotherapy. Patient also received Hudrea® (hydroxyurea).
(§6) 5 million AML MNCs were T-cell depleted and transplanted via tail vein into 6-8 weeks old sub-lethally irradiated NSG mice (n=10 per group). 4 to 6 weeks post-engraftment, bone marrow aspirates were collected from each mouse and were analyzed by flow cytometry to determine the level of leukemia engraftment (% of human CD45^+CD33^+/− cells). Based on engraftment levels, mice were randomized and conditioned with either IgG1 or daratumumab (DARA, pre-dosing at 0.5 mg/kg). 24 hours later, mice were untreated (Ctrl) or treated for 5 consecutive weeks with DARA or IgG1 alone (i.p, 10 mg/kg once a week). 2-3 days after the last treatment, mice were sacrificed and bone marrow, spleen, peripheral blood and plasma were collected for analysis. Flow cytometry was performed to assess percentage of human CD45^+CD33^+ cells in the BM, SPL and PB of 3 AML patients engrafted in NSG mice (AML 3406 model: FIG. 2A; AML 7577 model: FIG. 2B, AML 8096 model: FIG. 2C) and absolute number of the human CD45^+CD33^+ cells in bone marrow (FIG. 3A), spleen (FIG. 3B) and peripheral blood (FIG. 3C) of one representative AML patient.

MOLM-16 [4] = assay: In vitro ADCC with PBMC effector cells; format: cell-based; details: PBMC effector cells at ratio 50:1, 6 hours
Experimental: (§7) In vitro ADCC assays were performed using AML tumor cell lines and Peripheral Blood Mononuclear Cells (PBMC) as effector cells at a ratio of 50:1. One hundred μl of target (tumor) cells (1×10^4 cells) were added to wells of 96-well U-bottom plates. An additional 100 μl was added with or without antibody, and the plates were incubated for 30 minutes at room temperature (RT) before adding effector cells (PBMC). Seventy five μl of PBMCs at concentration 6.66×10^6 cells/ml was added to the wells of the plates, and the plates were incubated at 37° C. for 6 hours. Plates were centrifuged at 250 g for 4 minutes, 50 μl of supernatant removed per well and cell lysis was measured using the CellTiter-Glo® assay (Promega).

MOLM-13 [5] = assay: In vitro ADCC with PBMC effector cells; format: cell-based; details: PBMC effector cells at ratio 50:1, 6 hours
Experimental: as §7

THP-1 [6] = assay: In vitro ADCC with PBMC effector cells; format: cell-based; details: PBMC effector cells at ratio 50:1, 6 hours
Experimental: as §7

MV-4-11 [7] = assay: In vitro ADCC with PBMC effector cells; format: cell-based; details: PBMC effector cells at ratio 50:1, 6 hours
Experimental: as §7

ML-2 [8] = assay: In vitro ADCC with PBMC effector cells; format: cell-based; details: PBMC effector cells at ratio 50:1, 6 hours
Experimental: as §7

NB4 [9] = assay: In vitro ADCC with PBMC effector cells; format: cell-based; details: PBMC effector cells at ratio 50:1, 6 hours
Experimental: as §7

MOLM-16 [10] = assay: CDC (cell lysis, CellTiter-Glo); format: cell-based; details: human serum 10%
Experimental: as §3

MOLM-13 [11] = assay: CDC (cell lysis, CellTiter-Glo); format: cell-based; details: human serum 10%
Experimental: as §3

THP-1 [12] = assay: CDC (cell lysis, CellTiter-Glo); format: cell-based; details: human serum 10%
Experimental: as §3

MV-4-11 [13] = assay: CDC (cell lysis, CellTiter-Glo); format: cell-based; details: human serum 10%
Experimental: as §3

ML-2 [14] = assay: CDC (cell lysis, CellTiter-Glo); format: cell-based; details: human serum 10%
Experimental: as §3

NB4 [15] = assay: CDC (cell lysis, CellTiter-Glo); format: cell-based; details: human serum 10%
Experimental: as §3

AML cell lines [16] = assay: ADCC, summary over AML cell lines; format: cell-based
Experimental: as §7

MOLM-16 [17] = assay: Apoptosis (Annexin-V flow cytometry); format: cell-based; details: antibody 1 μg/ml, 22 hours, early and late apoptosis
Experimental: as §1, §2

NB-4 AML cell line [18] = assay: Apoptosis (Annexin-V flow cytometry); format: cell-based; details: for daratumumab-induced apoptosis: NB-4 cell line
Experimental: as §1, §2

MOLM-13 [19] = assay: Apoptosis (Annexin-V flow cytometry); format: cell-based; details: antibody 1 μg/ml, 22 hours, early and late apoptosis
Experimental: as §1, §2

THP-1 [20] = assay: Apoptosis (Annexin-V flow cytometry); format: cell-based; details: antibody 1 μg/ml, 22 hours, early and late apoptosis
Experimental: as §1, §2

MV-4-11 [21] = assay: Apoptosis (Annexin-V flow cytometry); format: cell-based; details: antibody 1 μg/ml, 22 hours, early and late apoptosis
Experimental: as §1, §2

ML-2 [22] = assay: Apoptosis (Annexin-V flow cytometry); format: cell-based; details: antibody 1 μg/ml, 22 hours, early and late apoptosis
Experimental: as §1, §2

[23] = tested on: CD38 on leukemia blasts (CD45+CD33+ positive cells); assay: CD38 expression on leukemic blasts in PDX AML 3406 model; format: in vivo, NSG mice; details: after 5 weeks of treatment
Experimental: as §6
Effect of daratumumab on CD38 expression on leukemic blasts was assessed in one representative AML model described in Example 3 after 5 weeks of treatment with daratumumab or isotype control using PE-labeled anti-CD38 antibody (R&D Systems).

AML 8096 model = assay: Patient-derived xenograft (PDX) AML 8096 model, leukemic burden; format: in vivo, NSG mice; details: spleen, i.p. 10 mg/kg once a week, 5 weeks
Excerpt: as §4
AML 8096 model: Leukemic cells were collected from a person with AML (FAB subtype M2). White blood cell count was 20×10e^9/L, from which 70% were blast cells. Patient had normal karyotype with wild type TP53, FLT3, NPM1, and insertion 570-587, 3GCACCC>4GCACCC in CEBPA exon1. Patient has a history of polycythemia versa, and received idarubicin/cytrabine for induction chemotherapy. Patient also received Hudrea® (hydroxyurea).
as §5

## CC1=C(/C=C/C(C)=C/C=C/C(C)=C/C(=O)O)C(C)(C)CCC1 [ATRA, all-trans-retinoic acid]
NB-4 AML cell line [1]; 10 nM ATRA
  PE-CD38 molecules/cell: 185737 molecules/cell
NB-4 AML cell line [1]; 100 nM ATRA
  PE-CD38 molecules/cell: 210570 molecules/cell
NB-4 AML cell line [1]; NB-4 cell line, 10 nM or 100 nM ATRA
  increase in CD38 receptors: ~10 fold

## daratumumab
AML cell lines [2]
  AML cell killing by apoptosis: induced AML cell killing by apoptosis
AML cell lines [3]
  CDC: did not induce significant ADCC or CDC
AML 7577 model
  tumor burden (% leukemic CD45+CD33+ cells): reduced tumor burden
AML 3406 model; bone marrow, Ctrl vs Dara
  total leukemic burden (number of CD45+CD33+ cells per four bones): no significant difference
AML 3406 model; peripheral blood
  total leukemic burden (number of CD45+CD33+ cells per μl blood): significantly reduced total leukemic burden
  tumor burden (% leukemic CD45+CD33+ cells): reduced tumor burden
AML 3406 model; spleen
  total leukemic burden (number of CD45+CD33+ cells per spleen): significantly reduced total leukemic burden
  tumor burden (% leukemic CD45+CD33+ cells): reduced tumor burden
MOLM-16 [4]
  ADCC: 18.20%
MOLM-13 [5]
  ADCC: 9.40%
THP-1 [6]
  ADCC: 11.30%
MV-4-11 [7]
  ADCC: 2.30%
ML-2 [8]
  ADCC: 6.30%
NB4 [9]
  ADCC: 18.30%
MOLM-16 [10]
  CDC: 5%
MOLM-13 [11]
  CDC: 0%
THP-1 [12]
  CDC: 5%
MV-4-11 [13]
  CDC: 0%
ML-2 [14]
  CDC: 0%
NB4 [15]
  CDC: 4%
AML cell lines [16]
  ADCC: did not induce significant ADCC or CDC
MOLM-16 [17]
  Apoptosis: 20-30%
NB-4 AML cell line [18]; NB4, antibody 1 μg/ml, 22 hours, early and late apoptosis
  Apoptosis: 18%
NB-4 AML cell line [18]; with crosslinking antibody (FIG. 1B)
  daratumumab-induced apoptosis: 18.3%
NB-4 AML cell line [18]; without crosslinking antibody (FIG. 1A)
  daratumumab-induced apoptosis: 19.2%
MOLM-13 [19]
  Apoptosis: 10-15%
THP-1 [20]
  Apoptosis: 5-7%
MV-4-11 [21]
  Apoptosis: 10-12%
ML-2 [22]
  Apoptosis: 5%
[23]; bone marrow, spleen and peripheral blood (FIG. 4B)
  percentage of CD38-positive AML blasts: reduced
[23]; bone marrow
  expression of CD38 on leukemia blasts: reduced expression of CD38
[23]; peripheral blood
  expression of CD38 on leukemia blasts: reduced expression of CD38
[23]; spleen
  expression of CD38 on leukemia blasts: reduced expression of CD38
AML 8096 model
  tumor burden (% leukemic CD45+CD33+ cells): reduced tumor burden
